Experimental findings from patent US20100173935A1, “Muscarinic Receptor Agonists that are Effective in the Treatment of Pain, Alzheimer's Disease and Schizophrenia” (AstraZeneca AB, priority 2006, published 2010) are described below.

For experiment [1], the target named is T1, hM1 (human Muscarinic receptor subtype 1) (Homo sapiens, UniProt P11229).
T1 construct: expressed in transfected cells; host or cells: CHO cells (ATCC)
T1 sequence (P11229 1-460): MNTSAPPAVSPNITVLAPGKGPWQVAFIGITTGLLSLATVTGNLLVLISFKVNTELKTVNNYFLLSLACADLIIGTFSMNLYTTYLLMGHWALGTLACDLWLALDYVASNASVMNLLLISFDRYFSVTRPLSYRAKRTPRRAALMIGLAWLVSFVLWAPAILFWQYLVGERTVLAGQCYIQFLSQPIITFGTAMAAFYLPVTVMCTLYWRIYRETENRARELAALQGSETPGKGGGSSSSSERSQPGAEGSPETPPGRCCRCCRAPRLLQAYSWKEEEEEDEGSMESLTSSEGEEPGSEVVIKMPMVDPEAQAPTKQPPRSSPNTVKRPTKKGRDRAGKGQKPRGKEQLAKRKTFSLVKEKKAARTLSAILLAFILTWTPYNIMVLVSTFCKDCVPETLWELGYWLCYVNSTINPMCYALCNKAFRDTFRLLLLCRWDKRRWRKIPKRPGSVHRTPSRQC
The experiment is described as follows: Human M1 calcium mobilization FLIPR assay. The experiment is classed as cell-based. The settings on record: CHO cells expressing hM1, Ca2+ release. The protocol:
(§1) The compound activity in the present invention (EC50 or IC50) was measured using a 384 plate-based imaging assay that monitors drug induced intracellular Ca^2+ release in whole cells. Activation of hM1 (human Muscarinic receptor subtype 1, gene bank access NM_000738), rM1 (rat Muscarinic receptor subtype 1, gene bank access NM_080773), hM3 (human Muscarinic receptor subtype 3, gene bank access NM_000740NM_000740) and hM5 (human Muscarinic receptor subtype 5, gene bank access NM_0121258), receptors expressed in CHO cells (chinese hamster ovary cells, ATCC) was quantified in a Molecular Devices FLIPR II™ instrument as an increase in fluorescent signal. Inhibition of hM3 and hM5 by compounds was determined by the decrease in fluorescent signal in response to 20 nM carbachol activation.
(§2) CHO cells were plated in 384-black polylysine coated plate (Costar) at 8000 cells/well/50 μl for 24 hours or 4000 cells/well for 48 hours in a humidified incubator (5% CO2 and 37° C.) in DMEM/F12 medium without selection agent. Prior to the experiment the cell culture medium was removed from the plates by inversion. A loading solution of 30 μl of Hank's balanced salt solution, 10 mM Hepes and 2.5 mM Probenicid at Ph 7.4 (Cat no. 311-520-VL, Wisent) with 2 μM calcium indicator dye (FLUO-3AM, Molecular Probes F14202) was added to each well. Plates were incubated at 37° C. for 60 minutes prior to start the experiment. The incubation was terminated by washing the cells four times in assay buffer, leaving a residual 25 μl buffer per well. Cell plates were then transferred to the FLIPR, ready for compound additions.
(§3) The day of experiment, carbachol and compounds were diluted in three-fold concentration range (10 points serial dilution) for addition by FLIPR instrument. For all calcium assays, a baseline reading was taken for 30 seconds followed by the addition of 12.5 μl (25 μl for hM1 and rM1) of compounds, resulting in a total well volume of 37.5 μl (50 μl for hM1 and rM1). Data were collected every 1.6 seconds for 300 seconds. For hM3 and hM5 an additional 12.5 μl of carbachol (20 nM final) was added at 300 seconds. After this addition of carbachol (producing a final volume of 50 μl), the FLIPR continued to collect data every 2 seconds for 240 seconds. The fluorescence emission was read using filter 1 (emission 520-545 nm) by the FLIPR on board CCD camera.
(§4) Calcium mobilization output data were calculated as the maximal relative fluorescence unit (RFU) minus the minal value for both compound and agonist reading frame (except for hM1 and rM1 using only the maximal RFU). Data were analyzed using sigmoidal fits of a non-linear curve-fitting program (XLfit version 5.0.6 from ID Business Solutions Limited, Guildford, UK). All EC50 and IC50 values are reported as arithmetic means±standard error of mean of ‘n’ independent experiments.
On the technique in general: Calcium assays in cells follow changes in intracellular calcium, usually with a dye or a luminescent sensor.

Experiment [2] deals with T2, hM3 (human Muscarinic receptor subtype 3) (Homo sapiens, UniProt P20309).
T2 construct: expressed in transfected cells; host or cells: CHO cells (ATCC)
The experiment is described as follows: Human M3 calcium mobilization FLIPR assay. The experiment is classed as cell-based. To be noted: CHO cells expressing hM3, Ca2+ release. On the procedure:
as §1, §2, §3, §4

As usually defined, the EC50 is the concentration at which the effect is half-maximal.

Bounds are passed on as bounds.

T2 sequence (P20309 whole entry): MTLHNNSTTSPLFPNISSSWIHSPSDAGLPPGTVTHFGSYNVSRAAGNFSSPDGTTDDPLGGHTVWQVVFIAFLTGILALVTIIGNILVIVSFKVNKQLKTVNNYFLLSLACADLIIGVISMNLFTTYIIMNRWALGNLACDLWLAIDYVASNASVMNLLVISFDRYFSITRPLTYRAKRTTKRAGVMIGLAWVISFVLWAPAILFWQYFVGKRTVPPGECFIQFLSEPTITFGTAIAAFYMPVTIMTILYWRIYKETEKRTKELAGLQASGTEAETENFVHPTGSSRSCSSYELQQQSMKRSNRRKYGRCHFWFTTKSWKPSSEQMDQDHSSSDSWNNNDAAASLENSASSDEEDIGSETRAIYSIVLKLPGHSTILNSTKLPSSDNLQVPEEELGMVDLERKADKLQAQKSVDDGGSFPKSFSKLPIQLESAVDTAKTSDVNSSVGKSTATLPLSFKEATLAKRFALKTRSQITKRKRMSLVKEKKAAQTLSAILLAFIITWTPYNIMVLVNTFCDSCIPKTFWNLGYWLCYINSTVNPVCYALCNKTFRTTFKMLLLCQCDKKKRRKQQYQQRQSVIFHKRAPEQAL

As for `CCOC(=O)N1CC[C@H](N2CCC(n3c(=O)[nH]c4ccc(F)cc43)CC2)C1` (single isomer, unassigned) [Example 35], the values for the half-maximal effective concentration (EC50) in experiment [1] and in experiment [2] were 4.5 nM and 5960 nM, respectively. As to `CCOC(=O)N1CC[C@@H](N2CCC(n3c(=O)[nH]c4ccc(F)cc43)CC2)C1` (single isomer, unassigned) [Example 36], the EC50 in experiment [1] was 40.8 nM; in experiment [2], above 40000 nM. `CCOC(=O)N1CCC(N2CCC(C3C(=O)Nc4ccccc43)CC2)C1` (centres unmarked) [Example 13, Ethyl 3-[4-(2-oxo-2,3-dihydro-1H-indol-3-yl)piperidin-1-yl]pyrrolidine-1-carboxylate]: the EC50 was 113 nM in experiment [1] and above 40000 nM in experiment [2]. The corresponding values for `CCOC(=O)N1CC[C@@H](N2CCC(n3c(=O)[nH]c4ccccc43)CC2)C1` [Example 16, Ethyl (3R)-3-[4-(2-oxo-2,3-dihydro-1H-benzimidazol-1-yl)piperidin-1-yl]pyrrolidine-1-carboxylate] are 130 nM and above 40000 nM. Taken in the same sequence, the figures for `O=C(C1CCCC1)N1CC[C@H](N2CCC(n3c(=O)[nH]c4ccccc43)CC2)C1` [Example 19, 1-{1-[(3S)-1-(cyclopentylcarbonyl)pyrrolidin-3-yl]piperidin-4-yl}-1,3-dihydro-2H-benzimidazol-2-one] were 9.6 nM and 2080 nM.

Turning to `O=C1CCCN1CCCC(=O)N1CC[C@H](N2CCC(n3c(=O)[nH]c4ccccc43)CC2)C1` [Example 22, 1-(1-{(3S)-1-[4-(2-oxopyrrolidin-1-yl)butanoyl]pyrrolidin-3-yl}piperidin-4-yl)-1,3-dihydro-2H-benzimidazol-2-one], the EC50 in experiment [1] was 37.9 nM. With `Cn1c(=O)n(C2CCN([C@H]3CCN(C(=O)CCN4CCCC4=O)C3)CC2)c2ccccc21` [Example 24, 1-methyl-3-(1-{(3S)-1-[3-(2-oxopyrrolidin-1-yl)propanoyl]pyrrolidin-3-yl}piperidin-4-yl)-1,3-dihydro-2H-benzimidazol-2-one], the EC50 in experiment [1] is 203 nM; in experiment [2] it was above 40000 nM. The corresponding values for `CCOC(=O)N1CC[C@H](N2CCC(N3C(=O)Cc4ccccc43)CC2)C1` [Example 26, Ethyl (3S)-3-[4-(2-oxo-2,3-dihydro-1H-indol-1-yl)piperidin-1-yl]pyrrolidine-1-carboxylate] are 30.8 nM and above 40000 nM. Regarding `O=C1CCCN1CCC(=O)N1CC[C@H](N2CCC(N3C(=O)Cc4ccccc43)CC2)C1` [Example 29, 1-(1-{(3S)-1-[3-(2-oxopyrrolidin-1-yl)propanoyl]pyrrolidin-3-yl}piperidin-4-yl)-1,3-dihydro-2H-indol-2-one], the EC50 in experiment [1] worked out at 3.5 nM; in experiment [2] it was 2500 nM.

Consider `CCOC(=O)N1CC[C@H](N2CCC(n3c(=O)[nH]c4ccc(C#N)cc43)CC2)C1` [Example 41, Ethyl (3S)-3-[4-(6-cyano-2-oxo-2,3-dihydro-1H-benzimidazol-1-yl)piperidin-1-yl]pyrrolidine-1-carboxylate], for which the EC50 came to 3.4 nM in experiment [1] and 2680 nM in experiment [2]. Regarding `CCOC(=O)N1CC[C@H](N2CCC(n3c(=O)[nH]c4ccc(Cl)cc43)CC2)C1` [Example 42, Ethyl (3S)-3-[4-(6-chloro-2-oxo-2,3-dihydro-1H-benzimidazol-1-yl)piperidin-1-yl]pyrrolidine-1-carboxylate], the EC50 in experiment [1] worked out at 3 nM.
